Source: the supplement of paper PMC10307832

Tests used:
Test in all cases: relative viability (nuclei count vs DMSO), 5 days (fraction); higher = more cells survive
Zosuquidar + Dasatinib = compound: O[C@@H](COc1cccc2ncccc12)CN1CCN([C@@H]2c3ccccc3[C@@H]3[C@H](c4ccccc42)C3(F)F)CC1 [Zosuquidar] + Cc1nc(Nc2ncc(C(=O)Nc3c(C)cccc3Cl)s2)cc(N2CCN(CCO)CC2)n1 [Dasatinib] (partner 0.075 µM)
How it was run: (§1)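 Relative viability is defined as nuclei in treated wells over nuclei in vehicle wells. Duplicate plates were run and medians reported. Lung cancer cell lines in 1536-well plates were dosed by pin tool one day after seeding, with one drug or with a fixed anchor-drug dose plus five library-drug doses (not always all listed) in √10 steps, and nuclei were counted after 5 days.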

[1] = compound: COc1cc2nccc(Oc3ccc(NC(=O)C4(C(=O)Nc5ccc(F)cc5)CC4)cc3)c2cc1OC [Cabozantinib] + O=C(CCCCCCC(=O)Nc1ccccc1)NO [Vorinostat] (partner 1 µM)
How it was run: as §1

Kobe2602 + Navitoclax = compound: C1=CC(=CC=C1NC(=S)NNC2=C(C=C(C=C2[N+](=O)[O-])C(F)(F)F)[N+](=O)[O-])F [Kobe2602] + CC1(C)CCC(c2ccc(Cl)cc2)=C(CN2CCN(c3ccc(C(=O)NS(=O)(=O)c4ccc(N[C@H](CCN5CCOCC5)CSc5ccccc5)c(S(=O)(=O)C(F)(F)F)c4)cc3)CC2)C1 [Navitoclax] (partner 0.5 µM)
How it was run: as §1

Kobe2602 + Lapatinib = compound: C1=CC(=CC=C1NC(=S)NNC2=C(C=C(C=C2[N+](=O)[O-])C(F)(F)F)[N+](=O)[O-])F [Kobe2602] + CS(=O)(=O)CCNCc1ccc(-c2ccc3ncnc(Nc4ccc(OCc5cccc(F)c5)c(Cl)c4)c3c2)o1 [Lapatinib] (partner 2 µM)
How it was run: as §1

Cell Line | relative viability (Zosuquidar + Dasatinib; first compound 0.01 µM) | relative viability (Zosuquidar + Dasatinib; first compound 0.03162 µM) | relative viability (Zosuquidar + Dasatinib; first compound 0.1 µM) | relative viability (Zosuquidar + Dasatinib; first compound 0.3162 µM) | relative viability (Zosuquidar + Dasatinib; first compound 1 µM) | relative viability ([1]; first compound 0.02 µM) | relative viability ([1]; first compound 0.06325 µM) | relative viability ([1]; first compound 0.2 µM) | relative viability ([1]; first compound 0.6325 µM) | relative viability ([1]; first compound 2 µM) | relative viability (Kobe2602 + Navitoclax; first compound 0.2 µM) | relative viability (Kobe2602 + Navitoclax; first compound 0.6325 µM) | relative viability (Kobe2602 + Navitoclax; first compound 2 µM) | relative viability (Kobe2602 + Navitoclax; first compound 6.325 µM) | relative viability (Kobe2602 + Navitoclax; first compound 20 µM) | relative viability (Kobe2602 + Lapatinib; first compound 0.2 µM) | relative viability (Kobe2602 + Lapatinib; first compound 0.6325 µM) | relative viability (Kobe2602 + Lapatinib; first compound 2 µM) | relative viability (Kobe2602 + Lapatinib; first compound 6.325 µM) | relative viability (Kobe2602 + Lapatinib; first compound 20 µM)
LK-2 | 0.31 | 0.41 | 0.291 | 0.297 | 0.314 | 0.226 | 0.178 | 0.385 | 0.309 | 0.348 | 0.899 | 1.06 | 0.815 | 0.825 | 0.891 | 1.02 | 0.857 | 0.961 | 0.83 | 1.09
LOU-NH91 | 0.515 | 0.377 | – | 0.601 | 0.552 | 0.851 | 0.973 | 0.822 | 0.853 | 0.914 | 0.702 | 0.816 | 0.644 | 0.697 | 0.68 | 0.706 | 0.774 | 0.718 | 0.801 | 0.805
LU99A | 0.458 | 0.577 | 0.505 | 0.552 | 0.569 | 0.413 | 0.524 | 0.574 | 0.456 | 0.647 | 0.817 | 0.87 | 0.811 | 0.732 | 0.781 | 0.989 | 0.921 | 0.959 | 0.97 | 1.07
LXF-289 | 0.217 | 0.125 | 0.237 | 0.301 | 0.182 | 0.755 | 0.765 | 0.659 | 0.738 | 0.756 | 0.95 | 0.959 | 0.873 | 0.941 | 0.923 | 0.872 | 0.891 | 0.88 | 0.874 | 0.873
NCI-H23 | 0.713 | 0.811 | 0.739 | 0.983 | 0.806 | – | 0.794 | 0.553 | 0.631 | 0.551 | 0.744 | 0.741 | 0.97 | 0.679 | 0.993 | 0.999 | 1.36 | 1.08 | 1.05 | 1.07
NCI-H322M | 0.242 | 0.229 | 0.242 | 0.269 | 0.227 | 0.897 | 1.1 | 0.894 | 0.894 | 0.917 | 1.28 | 1.31 | 1.25 | 1.26 | 0.631 | 0.588 | 0.648 | 0.652 | 0.571 | 0.647
NCI-H460 | 0.428 | 0.364 | 0.453 | 0.855 | 0.485 | 0.893 | 0.818 | 0.68 | 0.635 | 0.741 | 1.12 | 1.16 | 1.19 | 1.1 | 1.06 | 0.962 | 0.983 | 1.06 | 1 | 0.999
NCI-H520 | 0.224 | 0.156 | – | 0.254 | 0.189 | 0.719 | 0.64 | 0.715 | 0.598 | 0.688 | 0.99 | 1.08 | 1.03 | 1.07 | 0.988 | 0.853 | 0.908 | 0.645 | 0.729 | 0.824
NCI-H596 | 0.584 | – | 0.715 | 0.623 | 0.618 | 0.628 | 0.812 | 0.677 | 1.5 | 0.6 | 0.908 | 1.05 | 0.949 | 0.962 | 0.992 | 1.18 | 1.19 | 1.05 | 0.934 | 1.17
NCI-H647 | 0.168 | 0.121 | 0.137 | 0.229 | 0.163 | 0.621 | 0.734 | 0.696 | 0.43 | 0.496 | 1.16 | 1.1 | 1.06 | 1.04 | 1.13 | 1.09 | 0.937 | 0.943 | 0.938 | 1.01
NCI-H727 | 0.373 | 0.387 | 0.424 | 0.429 | 0.355 | 0.935 | 1.36 | 1.23 | 1.28 | 1.22 | 0.392 | 0.431 | 0.356 | 0.389 | 0.456 | 0.885 | 0.783 | 0.879 | 0.996 | 0.986
NCI-H838 | 0.321 | 0.26 | – | 0.336 | 0.35 | 0.744 | 0.765 | 0.713 | 0.665 | 0.667 | 1.17 | 1.22 | 1.12 | 1.13 | 1.17 | 0.905 | 1.14 | 0.96 | 1 | 0.87
NCI-H1355 | 0.681 | 0.726 | 0.623 | 0.85 | 0.711 | 0.659 | 0.754 | 0.6 | 0.635 | 0.625 | 0.887 | 0.94 | 0.945 | 0.901 | 0.902 | 0.942 | 1.01 | 0.992 | 0.876 | 0.929
NCI-H1395 | 0.404 | 0.378 | 0.307 | 0.406 | 0.431 | 0.623 | 0.831 | 0.703 | 0.685 | 0.656 | 1.07 | 1.09 | 1.12 | 1.11 | 1.33 | 0.925 | 1.04 | 1.01 | 1.18 | 1.12
NCI-H1437 | 0.404 | 0.398 | 0.457 | 0.715 | 0.346 | 0.931 | 0.984 | 0.925 | 0.809 | 0.715 | 1.04 | 1.07 | 1.11 | 1.11 | 0.901 | 0.815 | 0.847 | 0.723 | 0.79 | 0.673
NCI-H1650 | 0.298 | 0.29 | 0.284 | 0.338 | 0.314 | 0.655 | 0.643 | 0.519 | 0.586 | 0.543 | 1.08 | 1.33 | 0.948 | 1.36 | 1.22 | 0.833 | 1.07 | 0.773 | 0.941 | 0.875
